Assay results taken from PubChem BioAssay AID375 (SRMLSC, 2006).

Target: Pantothenate synthetase (Mycobacterium tuberculosis (strain ATCC 25618 / H37Rv)) (UniProt P9WIL5)
Experiment: Coupled enzyme confirmation of inhibitors against recombinant Mtb PanC (AID 375)
Settings: coupled enzyme assay, measured here: PanC IC50 repeat trials

Chain of Pantothenate synthetase (Mycobacterium tuberculosis (strain ATCC 25618 / H37Rv)) (P9WIL5 whole entry, looked up): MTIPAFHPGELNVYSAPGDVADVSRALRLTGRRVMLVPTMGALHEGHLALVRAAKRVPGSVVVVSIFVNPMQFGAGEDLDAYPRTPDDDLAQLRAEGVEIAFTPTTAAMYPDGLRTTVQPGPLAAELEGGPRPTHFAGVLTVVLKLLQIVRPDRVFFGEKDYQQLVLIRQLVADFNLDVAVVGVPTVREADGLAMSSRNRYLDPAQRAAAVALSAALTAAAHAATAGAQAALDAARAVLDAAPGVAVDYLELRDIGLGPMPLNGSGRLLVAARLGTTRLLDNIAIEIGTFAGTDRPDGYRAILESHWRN

| Structure (SMILES) | IC50 |
| --- | --- |
| Cc1ccc(Cn2ccc(NC(=O)c3cc(-c4ccccc4)on3)n2)cc1 | > 100 µM |
| Cc1cc(NC(=O)c2cc(-c3cccs3)on2)nn1Cc1ccc(Cl)cc1 | > 100 µM |
| Cc1ccc(Cn2ccc(NC(=O)c3cc(-c4ccc(Cl)cc4)on3)n2)cc1 | > 100 µM |
| Cc1cc(NC(=O)c2noc3c2CCCCC3)nn1Cc1ccc(Cl)cc1 | > 100 µM |
| COc1ccc(OC)c(-c2cc(C(=O)Nc3cc(C)n(Cc4ccc(Cl)cc4)n3)no2)c1 | > 100 µM |
| COc1cccc(-c2cc(C(=O)Nc3cc(C)n(Cc4ccc(Cl)cc4)n3)no2)c1 | > 100 µM |
| Cc1ccccc1Cn1cc(NC(=O)c2noc3c2CC(C(C)(C)C)CC3)cn1 (stereo not drawn) | 2.56 µM |
| COc1ccccc1-c1cc(C(=O)Nc2cc(C)n(Cc3ccc(Cl)cc3)n2)no1 | > 100 µM |
| Cc1cc(C(=O)Nc2cc(C)n(Cc3ccc(Cl)cc3)n2)no1 | > 100 µM |
| Cc1ccc(Cn2ccc(NC(=O)c3cc(-c4ccco4)on3)n2)cc1 | > 100 µM |
| Cc1ccc(Cn2ccc(NC(=O)c3noc4c3CCCC4)n2)cc1 | > 100 µM |
| Cc1ccc(Cn2ccc(NC(=O)c3noc4c3CCCCC4)n2)cc1 | > 100 µM |
| Cc1ccc(Cn2ccc(NC(=O)c3cc(-c4cccs4)on3)n2)cc1 | > 100 µM |
| COc1ccc(-c2cc(C(=O)Nc3cc(C)n(Cc4ccc(Cl)cc4)n3)no2)cc1OC | > 100 µM |
| Cc1ccc(Cn2ccc(NC(=O)c3cc(-c4cccc(Cl)c4)on3)n2)cc1 | > 100 µM |
| COc1ccc2c(c1)CCc1c(C(=O)Nc3cc(C)n(Cc4ccc(Cl)cc4)n3)noc1-2 | > 100 µM |
| Cc1cc(NC(=O)c2noc3c2CCCC3)nn1Cc1ccc(Cl)cc1 | > 100 µM |
| Cc1ccc(Cn2ccc(NC(=O)c3cc(-c4ccc(F)cc4)on3)n2)cc1 | > 100 µM |
| Cc1ccccc1Cn1nc(C)c(NC(=O)c2noc3c2CC(C(C)(C)C)CC3)c1C (stereo not drawn) | > 100 µM |
| CC(C)(C)C1CCc2onc(C(=O)Nc3cnn(Cc4ccc(F)cc4)c3)c2C1 (stereo not drawn) | 1.71 µM |
| Cc1ccc(Cn2ccc(NC(=O)c3cc(-c4ccc(Br)cc4)on3)n2)cc1 | > 100 µM |
| Cc1cc(NC(=O)c2cc(-c3ccco3)on2)nn1Cc1ccc(Cl)cc1 | > 100 µM |
| COc1ccc2c(c1)CCc1c(C(=O)Nc3ccn(Cc4ccc(C)cc4)n3)noc1-2 | > 100 µM |
